Source: US8933070B2, “Methods of targeting PTEN mutant diseases and compositions therefor” (University Health Network, priority 2010, dated 2015)

Biological target: T1, human PLK4 (Homo sapiens, UniProt O00444)
T1 construct: amino terminal GST fusion of residues 1-391 of human PLK4; made in house; host or cells: E. coli
T1 sequence (O00444 1-391): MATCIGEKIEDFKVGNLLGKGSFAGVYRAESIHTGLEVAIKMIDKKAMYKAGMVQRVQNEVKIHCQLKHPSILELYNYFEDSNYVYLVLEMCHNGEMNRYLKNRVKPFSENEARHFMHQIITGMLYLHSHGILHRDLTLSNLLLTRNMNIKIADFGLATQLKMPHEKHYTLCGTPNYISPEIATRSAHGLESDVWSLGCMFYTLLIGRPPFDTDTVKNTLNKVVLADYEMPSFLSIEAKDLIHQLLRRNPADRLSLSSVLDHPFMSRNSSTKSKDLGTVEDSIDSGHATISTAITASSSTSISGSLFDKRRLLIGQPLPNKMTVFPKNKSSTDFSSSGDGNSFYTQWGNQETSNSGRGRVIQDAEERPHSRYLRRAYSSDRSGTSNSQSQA
Test: PLK4 inhibition assay (indirect ELISA)
Format: biochemical
Procedure: The protein was purified from clarified cell extracts after induction at 15° C. overnight using glutathione sepharose, gel permeation chromatography, and ion exchange (Resource Q). The resulting protein was dephosphorylated with lambda phosphatase (NEB cat# P0753), and resolved from the phosphatase using gluthione sepharose. The dephosphorylated GST-PLK4 was stored in aliquots at −80° C. until use.
PLK4 activity was measured using an indirect ELISA detection system. […] The colourimetric reaction was allowed to continue for 5 minutes, followed by addition of stop solution (0.5 N sulphuric acid), and quantified by detection at 450 nm with either a monochromatic or filter based plate reader (Molecular Devices M5 or Beckman DTX880, respectively).
Compounds were pre-incubated in the presence of enzyme for 15 minutes prior to addition of ATP and the activity remaining quantified using the above described activity assay. […] The IC50 value was determined using a non-linear 4 point logistic curve fit (XLfit4, IDBS) with the formula; (A+(B/(1+((x/C)^D)))), where A=background value, B=range, C=inflection point, D=curve fit parameter.

COc1ccc2c(c1)[C@@]1(C[C@@H]1c1ccc3c(-c4ccc(N5CCN(C)CC5)nc4)n[nH]c3c1)C(=O)N2 (racemic) [Compound 2]
IC50: < 5 µM
